Where a name gives a salt, the structure may show the parent alone. ± gives the standard deviation of the averaged measurements.
System: HepaRG
Assay: LDH release cytotoxicity, % of total lysis control; higher = more cytotoxic
Settings: 48 h
Summary of the method: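 HepaRG cells from a single lot were plated on collagen I-coated 96-well plates and treated in duplicate for 48 h with eight-point half-log series of test chemicals, starting at 100 µM, in serum-free induction medium containing 0.5% DMSO. Total lysis wells were given 0.1% Triton X. LDH released into 50 µL of spent medium was measured as resorufin fluorescence with CytoTox-ONE on a Tecan Safire. Percent cytotoxicity was normalized to on-plate vehicle and total lysis controls and then averaged across duplicates.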

SMILES	LDH release cytotoxicity (0.03162 µM) [%]	LDH release cytotoxicity (0.1 µM) [%]	LDH release cytotoxicity (0.3162278 µM) [%]	LDH release cytotoxicity (1 µM) [%]	LDH release cytotoxicity (3.16228 µM) [%]	LDH release cytotoxicity (10 µM) [%]	LDH release cytotoxicity (31.6228 µM) [%]	LDH release cytotoxicity (100 µM) [%]	other results
O=C(Nc1ccc([N+](=O)[O-])cc1Cl)c1cc(Cl)ccc1O [5-Chloro-N-(2-chloro-4-nitrophenyl)-2-hydroxybenzamide]	1.65 ± 0.17	-0.562 ± 0.35	-0.79 ± 0.51	-0.00174 ± 0.41	0.224 ± 0.77	1.07 ± 0.19	1.7 ± 0.41	4.52 ± 0.71	
C=CCC1=C(C)C(OC(=O)C2C(C=C(C)C)C2(C)C)CC1=O (stereo unspecified) [S-Bioallethrin]									LDH release cytotoxicity (0.0147 µM): -2.51 ± 0.52%; LDH release cytotoxicity (0.0465 µM): -1.46 ± 0.56%; LDH release cytotoxicity (0.147046 µM): -1.76 ± 0.23%; LDH release cytotoxicity (0.465 µM): -2.13 ± 0.17%; LDH release cytotoxicity (1.4704591 µM): -1.73 ± 0.45%; LDH release cytotoxicity (4.65 µM): -1.51 ± 0.71%; LDH release cytotoxicity (14.7046 µM): -0.957 ± 0.95%; LDH release cytotoxicity (46.5 µM): 0.422 ± 0.55%
CC(=O)[O][Hg][c]1ccccc1 [Phenylmercuric acetate]	-1.79 ± 0.027	-0.0392 ± 0.1	3.3 ± 0.71	13.6 ± 5	23.5 ± 4.7	45.48 ± 0.45	-7.82 ± 0.28	-8.63 ± 0.18	
CCOC(=O)COc1cc(-c2nn(C)c(OC(F)F)c2Cl)c(F)cc1Cl [Pyraflufen-ethyl]	0.0981 ± 1.6	-2.14 ± 0.14	-0.894 ± 0.076	-0.96 ± 1.1	-1.01 ± 0.6	-0.751 ± 0.049	0.45 ± 0.72	1.13 ± 1.6	
OCCC(F)(F)C(F)(F)C(F)(F)C(F)(F)C(F)(F)C(F)(F)C(F)(F)C(F)(F)F [8:2 Fluorotelomer alcohol]		-0.0838 ± 1.2		-2.22 ± 0.18	-2.23 ± 0.56	-1.35 ± 0.57	-1.87 ± 0.66	0.405 ± 2.2	LDH release cytotoxicity (0.031623 µM): -0.581 ± 1.7%; LDH release cytotoxicity (0.316228 µM): -1.41 ± 0.61%
Cc1nn(C)c(Oc2ccccc2)c1C=NOCc1ccc(C(=O)OC(C)(C)C)cc1 [Fenpyroximate (Z,E)]	-1.39 ± 1.1	-1.596 ± 0.013	-2.4 ± 0.59	-2.65 ± 0.51	11 ± 1.3	17.19 ± 0.12	20.7 ± 1.8	30.9 ± 2.2	
O=C(O)C1C(C(=O)O)C2(Cl)C(Cl)=C(Cl)C1(Cl)C2(Cl)Cl (stereo unspecified) [Chlorendic acid]	-0.458 ± 0.46	-0.878 ± 0.64	-1.72 ± 0.51	-1.15 ± 0.69	-0.967 ± 0.21	-0.519 ± 0.29	-0.436 ± 0.8	0.638 ± 1.1	
CCCN(CCOc1c(Cl)cc(Cl)cc1Cl)C(=O)n1ccnc1 [Prochloraz]		-2.541 ± 0.013		-2.56 ± 0.4	-0.716 ± 0.26	-0.855 ± 0.78	13.7 ± 0.66	64.6 ± 0.66	LDH release cytotoxicity (0.031623 µM): 0.136 ± 1.1%; LDH release cytotoxicity (0.316228 µM): -3.11 ± 1.4%
Clc1nc(Cl)nc(Nc2ccccc2Cl)n1 [Anilazine]	0.501 ± 1.1	0.704 ± 0.18	0.988 ± 0.25	0.786 ± 0.59	0.633 ± 0.28	0.855 ± 0.55	0.799 ± 0.19	0.712 ± 0.08	
CCO[Si](CCCNC(N)=O)(OCC)OCC [1-[3-(Triethoxysilyl)propyl]urea]	-1.05 ± 0.013	-2.25 ± 0.44	-1.8 ± 0.35	-2.22 ± 0.071	-2.28 ± 0.25	-1.64 ± 0.34	-1.55 ± 0.96	0.263 ± 0.38	
COC(=O)NC(=S)Nc1ccccc1NC(=S)NC(=O)OC [Thiophanate-methyl]	-1.04 ± 0.2	-0.552 ± 0.3	-0.928 ± 0.03	-1.83 ± 0.058	-0.882 ± 0.41	0.238 ± 0.4	0.796 ± 0.9	8.47 ± 0.31	
CN(C)C(=O)NC1(c2ccccc2)CCN(CCCC2(c3ccc(Cl)c(Cl)c3)CCCN(C(=O)c3ccccc3)C2)CC1 (stereo unspecified)									LDH release cytotoxicity (0.0079057 µM): 0.117 ± 0.015%; LDH release cytotoxicity (0.025 µM): -1.98 ± 0.18%; LDH release cytotoxicity (0.0790569 µM): -1.74 ± 0.42%; LDH release cytotoxicity (0.25 µM): -1.65 ± 0.21%; LDH release cytotoxicity (0.790569 µM): -1.74 ± 0.064%; LDH release cytotoxicity (2.5 µM): -1.23 ± 1%; LDH release cytotoxicity (7.90569 µM): -0.502 ± 1%; LDH release cytotoxicity (25 µM): 77 ± 4.5%
CCc1ccc(CCOc2ccc(CC3SC(=O)NC3=O)cc2)nc1 (stereo unspecified) [Pioglitazone hydrochloride]	-0.765 ± 0.13	-1.11 ± 0.35	-1.39 ± 0.062	-1.98 ± 0.67	-2.26 ± 0.28	-3.4 ± 0.42	-3.94 ± 0.23	-0.63 ± 0.3	
ClC(Cl)(Cl)c1ccccc1 [Benzotrichloride]	-0.669 ± 1.1	-1.85 ± 0.77	-1.72 ± 0.38	-1.748 ± 0.0065	-1.92 ± 0.31	-2.01 ± 0.6	-1.18 ± 0.47	-0.246 ± 0.61	
CCOCCOCCOCCO [2-[2-(2-Ethoxyethoxy)ethoxy]ethanol]	-2.06 ± 0.3	-1.83 ± 0.41	-2.87 ± 0.13	-2.53 ± 0.46	-2.5 ± 0.72	-1.81 ± 0.26	-1.33 ± 0.37	0.397 ± 0.68	
COS(C)(=O)=O [Methyl methanesulfonate]	-1.45 ± 0.74	-1.11 ± 0.35	-1.7 ± 0.1	-0.993 ± 1.2	-1.33 ± 0.4	-1.07 ± 0.89	-1.15 ± 0.067	0.825 ± 0.66	
ClC1=C(Cl)C2(Cl)C3C4C=CC(C4)C3C1(Cl)C2(Cl)Cl (stereo unspecified) [Aldrin]	-1.03 ± 0.13	-1.22 ± 0.11	-1.42 ± 0.63	-2.25 ± 0.36	-1.19 ± 0.49	-0.76 ± 1.3	-1.01 ± 0.71	3.93 ± 0.095	
C1=Cc2cccc3cccc1c23 [Acenaphthylene]		-2.98 ± 1.1		-2.28 ± 0.87	-2.7 ± 0.39	-2.757 ± 0.027	-1.56 ± 0.24	1 ± 0.85	LDH release cytotoxicity (0.031623 µM): -0.662 ± 0.2%; LDH release cytotoxicity (0.316228 µM): -2.7 ± 0.37%
CCOC(=O)NCCOc1ccc(Oc2ccccc2)cc1 [Fenoxycarb]	-2.3 ± 0.29	-2.15 ± 0.69	-2.2 ± 0.96	-2.52 ± 0.77	-2.33 ± 0.49	-1.4 ± 0.053	-2.64 ± 0.77	16.6 ± 5.7	
c1ccc2occc2c1 [2,3-Benzofuran]	-0.572 ± 0.84	-1.07 ± 0.4	-0.829 ± 0.4	-0.181 ± 0.71	-1.1 ± 0.81	0.338 ± 0.67	2.32 ± 1.2	2.02 ± 0.38	
Cc1ccc(C(C)(C)C)c(O)c1 [2-Tert-Butyl-5-methylphenol]	-2.27 ± 0.2	-3.53 ± 0.25	-3.17 ± 1.2	-3.25 ± 0.28	-3.05 ± 0.58	-1.24 ± 0.75	-1.73 ± 0.49	1.45 ± 1.3	
C1CCC(SSC2CCCCC2)CC1 [Dicyclohexyl disulfide]	-0.985 ± 0.37	-0.62 ± 0.75	-0.405 ± 0.35	-1.38 ± 0.086	-2 ± 0.2	-0.29 ± 0.24	2.64 ± 0.37	68.4 ± 6.2	
CCN(CC)CCOc1ccc(C(=C(Cl)c2ccccc2)c2ccccc2)cc1 [Clomiphene citrate (1:1)]									LDH release cytotoxicity (0.0265631 µM): -2.02 ± 0.85%; LDH release cytotoxicity (0.084 µM): -1.22 ± 1.1%; LDH release cytotoxicity (0.265631 µM): -0.767 ± 0.54%; LDH release cytotoxicity (0.84 µM): -1.18 ± 0.029%; LDH release cytotoxicity (2.6563132 µM): -0.65 ± 0.39%; LDH release cytotoxicity (8.4 µM): -1.17 ± 0.63%; LDH release cytotoxicity (26.563132 µM): 9.07 ± 8.3%; LDH release cytotoxicity (84 µM): 95.2 ± 1.5%
CCCSP(=O)(OCC)SCCC [Ethoprop]									LDH release cytotoxicity (0.0325715 µM): -0.633 ± 0.18%; LDH release cytotoxicity (0.103 µM): -0.669 ± 0.35%; LDH release cytotoxicity (0.325715 µM): -0.697 ± 0.094%; LDH release cytotoxicity (1.03 µM): -0.356 ± 0.87%; LDH release cytotoxicity (3.25715 µM): -0.537 ± 0.42%; LDH release cytotoxicity (10.3 µM): -0.345 ± 0.28%; LDH release cytotoxicity (32.5715 µM): 0.55 ± 0.93%; LDH release cytotoxicity (103 µM): 2.97 ± 0.41%
NC(=O)Cn1c(=O)cc(CCN2CCN(c3nccc4sccc34)CC2)c2ccc(F)cc21 [Trelanserin]	-2.76 ± 0.59	-2.72 ± 0.22	-2.6 ± 0.45	-2.79 ± 0.15	-2.49 ± 0.9	-3.23 ± 0.63	-3.19 ± 0.31	4.59 ± 0.19	
Nc1nc(N)nc(NC2CC2)n1 [Cyromazine]	-1.4 ± 0.21	-0.914 ± 1.1	-0.958 ± 0.84	-1.75 ± 0.58	-1.74 ± 0.52	-1.14 ± 0.16	-1.52 ± 0.36	0.201 ± 0.23	
CCOC(=O)CCC(=O)OCC [Diethyl butanedioate]	-2.6 ± 0.22	-1.75 ± 0.66	-2.02 ± 0.1	-1.99 ± 0.076	-0.438 ± 0.84	-0.384 ± 0.28	16 ± 3.3	83.2 ± 4.8	

From the supplement of paper PMC7840683
